US9615577B2, “Herbicidally active cyclic dione compounds, or derivatives therefor, substituted by a phenyl which has an alkynyl-containing substituent” (Syngenta Limited, priority 2012, dated 2017)

Tests used:
Format in all cases: in vivo
[1] = tested on: Echinochloa crus-galli (ECHCG); test: Test 1A glasshouse assay for herbicidal activity, pre-emergence; details: 312 h, 250 g/ha, evaluated after 13 days, read-out: percentage phytotoxicity ECHCG
Procedure, shortened: (§1)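 Glasshouse spray test with visual phytotoxicity scoring (0–100%) after 13 days. Application timing: 1 day after sowing or after 8 days' cultivation, in 0.5% Tween 20 acetone/water.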

[2] = tested on: Amaranthus retroflexus (AMARE); test: as above; details: 312 h, 250 g/ha, evaluated after 13 days, read-out: percentage phytotoxicity AMARE
Procedure, shortened: as §1

[3] = tested on: Alopecurus myosuroides (ALOMY); test: as above; details: 312 h, 250 g/ha, evaluated after 13 days, read-out: percentage phytotoxicity ALOMY
Procedure, shortened: as §1

[4] = tested on: Ipomoea hederacea (IPOHE); test: as above; details: 312 h, evaluated after 13 days, read-out: percentage phytotoxicity IPOHE
Procedure, shortened: as §1

Setaria faberi (SETFA) [5] = test: as above; details: 312 h, 250 g/ha, evaluated after 13 days, read-out: percentage phytotoxicity SETFA
Procedure, shortened: as §1

Solanum nigrum (SOLNI) [6] = test: as above; details: 312 h, evaluated after 13 days, read-out: percentage phytotoxicity SOLNI
Procedure, shortened: as §1

[7] = tested on: Echinochloa crus-galli (ECHCG); test: Test 1A glasshouse assay for herbicidal activity, post-emergence; details: 312 h, 250 g/ha, evaluated after 13 days, read-out: percentage phytotoxicity ECHCG
Procedure, shortened: as §1

[8] = tested on: Amaranthus retroflexus (AMARE); test: as above; details: 312 h, 250 g/ha, evaluated after 13 days, read-out: percentage phytotoxicity AMARE
Procedure, shortened: as §1

[9] = tested on: Alopecurus myosuroides (ALOMY); test: as above; details: 312 h, 250 g/ha, evaluated after 13 days, read-out: percentage phytotoxicity ALOMY
Procedure, shortened: as §1

[10] = tested on: Ipomoea hederacea (IPOHE); test: as above; details: 312 h, 250 g/ha, evaluated after 13 days, read-out: percentage phytotoxicity IPOHE
Procedure, shortened: as §1

Setaria faberi (SETFA) [11] = test: as above; details: 312 h, 250 g/ha, evaluated after 13 days, read-out: percentage phytotoxicity SETFA
Procedure, shortened: as §1

Solanum nigrum (SOLNI) [12] = test: as above; details: 312 h, 250 g/ha, evaluated after 13 days, read-out: percentage phytotoxicity SOLNI
Procedure, shortened: as §1

[13] = tested on: Echinochloa crus-galli (ECHCG); test: Biological Example 2 comparative herbicidal data, post-emergence glasshouse screen; details: 312 h, read-out: Post-emergence herbicidal activities (percentage phytotoxicity) ECHCG
Procedure, shortened: (§2)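 Plants grown 8 days in a glasshouse (24/16°C day/night, 14 h light, 65% humidity) were sprayed with compound in acetone/water (50:50) containing 0.5% Tween 20. They were kept under the same conditions and watered twice daily. Phytotoxicity was scored visually after 13 days (0 = no damage, 100 = total damage).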

[14] = tested on: Alopecurus myosuroides (ALOMY); test: as above; details: 312 h, read-out: Post-emergence herbicidal activities (percentage phytotoxicity) ALOMY
Procedure, shortened: as §2

Setaria faberi (SETFA) [15] = test: as above; details: 312 h, read-out: Post-emergence herbicidal activities (percentage phytotoxicity) SETFA
Procedure, shortened: as §2

[16] = tested on: Brassica napus (BRSNN, rape); test: Test 1B glasshouse assay for herbicidal activity, post-emergence; details: 360 h; for plant injury at 60 g/ha: 60 g/ha application rate
Protocol: (§3) Seeds of a variety of monocotyledonous and dicotyledonous test plants are sown in standard soil in pots. The plants are cultivated for one day (for pre-emergence) or for about 12 days (range=10-13 days) (for post-emergence) under controlled conditions in a glasshouse (warm climate species at 24/18° C., cool climate species at 20/16° C., both at day/night; 16 hours light; 65% humidity).
(§4) An “instant formulation”, known as the “IF50”, containing 50 g/liter (i.e. 5% w/v) of the “technical” (i.e. unformulated) active ingredient is prepared by dissolving the active ingredient in a mixture of organic solvents and emulsifier, details of which are provided in the Table below. This IF50 is then mixed with a small, variable amount of acetone to aid dissolution, before addition of a 0.2% v/v aqueous solution of the adjuvant X-77 (which is a mixture of alkyl aryl polyoxyethylene glycols and free fatty acids in isopropanol, CAS Registry number 11097-66-8), as the aqueous diluent, to form an aqueous spray solution which contains a predetermined concentration of the active ingredient (which varies depending on the application rate of the active ingredient to the plants) and 0.2% v/v of the adjuvant X-77. This aqueous spray solution is then sprayed onto the plants, after one day's cultivation (for pre-emergence) or after about 12 days' cultivation (for post-emergence).
(§5) The test plants are then grown on, in a glasshouse (greenhouse) under controlled conditions (at either 24/18° C. or 20/16° C. (day/night) as mentioned above; 16 hours light; 65% humidity) and are watered twice daily. Either 15 days after application of the herbicide (15 DAA) (for post-emergence), or 20 days after application of the herbicide (20 DAA) (for pre-emergence), the test plants are evaluated visually, and an assessed percentage phytotoxicity score is given for each herbicidal application on each plant species (where 100%=total damage to plant; 0%=no damage to plant).
(§6) Cool climate crop plants: Triticum aestivum (TRZAW, winter wheat), Brassica napus (BRSNN, rape, also called oilseed rape or rapeseed), Beta vulgaris (BEAVA, sugar beet).

[17] = tested on: Beta vulgaris (BEAVA, sugar beet); test: as above; details: 360 h, 250 g/ha application rate
Protocol: as §3, §4, §5, §6

[18] = tested on: Triticum aestivum (TRZAW, winter wheat); test: as above; details: 360 h; for plant injury at 60 g/ha: 60 g/ha application rate
Protocol: as §3, §4, §5, §6

Avena fatua (AVEFA) = test: as above; details: 360 h; for pest or weed control at 60 g/ha: 60 g/ha application rate
Protocol: as §3, §4, §5
(§7) Cool climate (“cool season”) grassy monocotyledonous weeds: Alopecurus myosuroides (ALOMY), Avena fatua (AVEFA), Lolium perenne (LOLPE).

[19] = tested on: Alopecurus myosuroides (ALOMY); test: as above; details: 360 h; for pest or weed control at 60 g/ha: 60 g/ha application rate
Protocol: as §3, §4, §5, §7

Lolium perenne (LOLPE) = test: as above; details: 360 h; for pest or weed control at 60 g/ha: 60 g/ha application rate
Protocol: as §3, §4, §5, §7

Setaria faberi (SETFA) [20] = test: as above; details: 360 h; for pest or weed control at 60 g/ha: 60 g/ha application rate
Protocol: as §3, §4, §5
(§8) Warm climate (“warm season”) grassy monocotyledonous weeds: Setaria faberi (SETFA), SORVU (Sorghum bicolor (L.) Moench ssp. Bicolor, or Sorghum vulgare Pers.), Digitaria sanguinalis (DIGSA), Echinochloa crus-galli (ECHCG), and Brachiaria plantaginea (BRAPL).

[21] = tested on: Brachiaria plantaginea (BRAPL); test: as above; details: Urochloa plantaginea; for pest or weed control at 60 g/ha: 60 g/ha application rate
Protocol: as §3, §4, §5, §8

[22] = tested on: SORVU (Sorghum bicolor (L.) Moench ssp. Bicolor, or Sorghum vulgare Pers.); test: as above; details: 360 h, 250 g/ha application rate
Protocol: as §3, §4, §5, §8

[23] = tested on: Digitaria sanguinalis (DIGSA); test: as above; details: 360 h; for pest or weed control at 60 g/ha: 60 g/ha application rate
Protocol: as §3, §4, §5, §8

[24] = tested on: Echinochloa crus-galli (ECHCG); test: as above; details: for pest or weed control at 60 g/ha: 60 g/ha application rate
Protocol: as §3, §4, §5, §8
Note: The herbicidal activity data (e.g. post-emergence) shown above in Biological Example 1B for Comparator compounds X-9 and X-10 is thought likely to have been measured some years ago, probably using a variant of the above-described test method. Also, for the post-emergence activity of X-9 and X-10 it is not currently known exactly how many days after application of the herbicide the phytotoxicity on the plants was measured.

[25] = tested on: Glycine max (GLXMA, soybean); test: as above; details: 360 h; for plant injury at 60 g/ha: 60 g/ha application rate
Protocol: as §3, §4, §5
Warm climate crop plants: Glycine max (GLXMA, soybean).

Row | SMILES | pest or weed control at 250 g/ha [1] | pest or weed control at 250 g/ha [2] | pest or weed control at 250 g/ha [3] | pest or weed control at 250 g/ha [4] | pest or weed control at 250 g/ha (Setaria faberi (SETFA) [5]) | pest or weed control at 250 g/ha (Solanum nigrum (SOLNI) [6]) | pest or weed control at 250 g/ha [7] | pest or weed control at 250 g/ha [8] | pest or weed control at 250 g/ha [9] | pest or weed control at 250 g/ha [10] | pest or weed control at 250 g/ha (Setaria faberi (SETFA) [11]) | pest or weed control at 250 g/ha (Solanum nigrum (SOLNI) [12]) | plant injury at 60 g/ha [16] | plant injury at 60 g/ha [18] | pest or weed control at 60 g/ha (Avena fatua (AVEFA)) | pest or weed control at 60 g/ha [19] | pest or weed control at 60 g/ha (Lolium perenne (LOLPE)) | pest or weed control at 60 g/ha (Setaria faberi (SETFA) [20]) | pest or weed control at 60 g/ha [21] | pest or weed control at 60 g/ha [23] | further results
1 | CC#Cc1cc(C)c(C2C(=O)C3CCC(C3)C2=O)c(CCC)c1 (stereo not shown) [Compound A-3] | 100% | 0% | 100% | 40% | 100% | 0% | 100% | 10% | 90% | 0% | 90% | 20% |  |  |  |  |  |  |  |  | 
2 | CC#Cc1cc(Cl)c(C2C(=O)C3CCC(C3)C2=O)c(CC)c1 (stereo not shown) [Compound A-4] | 100% | 0% | 100% | 0% | 70% | 0% | 100% | 0% | 90% | 0% | 80% | 0% |  |  |  |  |  |  |  |  | 
3 | Cc1cc(C#CCl)ccc1C1C(=O)C(C)(C)OC(C)(C)C1=O [Compound A-7] | 80% | 60% | 80% | 20% | 30% | 40% | 80% | 0% | 80% | 20% | 80% | 50% |  |  |  |  |  |  |  |  | pest or weed control at 15.625 g/ha ([13]; 15.625 g/ha application rate): 0%; pest or weed control at 62.5 g/ha ([13]; 62.5 g/ha application rate): 60%; pest or weed control at 15.625 g/ha ([14]; 15.625 g/ha application rate): 30%; pest or weed control at 62.5 g/ha ([14]; 62.5 g/ha application rate): 50%; pest or weed control at 15.625 g/ha (Setaria faberi (SETFA) [15]; 15.625 g/ha application rate): 40%; pest or weed control at 62.5 g/ha (Setaria faberi (SETFA) [15]; 62.5 g/ha application rate): 60%
4 | CC#Cc1cc(Cl)c(C2C(=O)C3CCC(C3)C2=O)c(OCCOC)c1 (stereo not shown) [Compound A-18] |  |  |  |  |  |  |  |  |  |  |  |  |  |  |  |  |  |  |  |  | plant injury at 250 g/ha ([16]; 250 g/ha application rate): 30%; plant injury at 250 g/ha [17]: 30%; plant injury at 250 g/ha ([18]; 250 g/ha application rate): 10%; pest or weed control at 250 g/ha (Avena fatua (AVEFA); 250 g/ha application rate): 20%; pest or weed control at 250 g/ha ([19]; 250 g/ha application rate): 0%; pest or weed control at 250 g/ha (Lolium perenne (LOLPE); 250 g/ha application rate): 0%; pest or weed control at 250 g/ha (Setaria faberi (SETFA) [20]; 250 g/ha application rate): 80%; pest or weed control at 250 g/ha ([21]; 250 g/ha application rate): 70%; pest or weed control at 250 g/ha [22]: 100%; pest or weed control at 250 g/ha ([23]; 250 g/ha application rate): 90%; pest or weed control at 250 g/ha ([24]; Echinochloa crus-galli, 250 g/ha application rate): 90%; plant injury at 250 g/ha ([25]; 250 g/ha application rate): 20%
5 | Cc1cc(C)c(C2C(=O)C3CCC(C3)C2=O)c(C)c1 (stereo not shown) [Compound X-9, reference compound] |  |  |  |  |  |  |  |  |  |  |  |  | 0% | 0% | 0% | 20% | 0% | 80% | 80% | 70% | plant injury at 125 g/ha ([16]; 125 g/ha application rate): 20%; plant injury at 125 g/ha ([18]; 125 g/ha application rate): 0%; pest or weed control at 125 g/ha (Avena fatua (AVEFA); 125 g/ha application rate): 0%; pest or weed control at 125 g/ha ([19]; 125 g/ha application rate): 40%; pest or weed control at 125 g/ha (Lolium perenne (LOLPE); 125 g/ha application rate): 40%; pest or weed control at 125 g/ha (Setaria faberi (SETFA) [20]; 125 g/ha application rate): 80%; pest or weed control at 125 g/ha ([21]; 125 g/ha application rate): 80%; pest or weed control at 125 g/ha ([23]; 125 g/ha application rate): 80%; pest or weed control at 60 g/ha ([24]; Echinochloa crus-galli): 40%; pest or weed control at 125 g/ha ([24]; Echinochloa crus-galli, 125 g/ha application rate): 60%; plant injury at 60 g/ha [25]: 0%; plant injury at 125 g/ha ([25]; 125 g/ha application rate): 0%
6 | CCc1cc(C)cc(CC)c1C1C(=O)C2CCC(C2)C1=O (stereo not shown) [Compound X-10, reference compound] |  |  |  |  |  |  |  |  |  |  |  |  | 0% | 20% | 50% | 80% | 70% | 100% | 90% | 100% | post-emergence activity on ECHCG compared with Compound A-5 ([24]; 60 g/ha, probably a variant of the test method, days after application not known): lower post-emergence activity; pest or weed control at 60 g/ha ([24]; Echinochloa crus-galli): 70%; plant injury at 60 g/ha [25]: 0%
